Source: patent US20230382889A1 (Volastra Therapeutics, Inc., priority 2022, published 2023)

These compounds were tested against hKIF18A (1-374) (Homo sapiens (Human), UniProt Q8NI77) (assay: Inhibition of KIF18A microtubule-dependent ATPase activity (ADP-Glo)). Conditions: 4 nM hKIF18A (1-374).
Type: biochemical
Experimental: Test compounds were plated in a 3× dilution scheme in a 384-well plate. Assay buffer: 80 mM PIPES (pH 6.9), 1 mM MgCl2, 75 mM KCl, 1 mM EGTA, 1 mM DTT, 0.01% BSA, 0.005% Tween-20, 1 μM Taxol in H2O. […] After incubation at room temperature for 30 min, 2.5 μL of microtubule mix was added [0.2 mg/mL pre-formed microtubules, 2.0 mM ATP in assay buffer], the plate was centrifuged for 30 s and then incubated at 28° C. for 60 min. 5 μL of Promega® ADP-Glo Max R1 was added, the plate was centrifuged for 30 s, and the mixture incubated for 4 h at room temperature. 10 μL of Promega® ADP-Glo Max R2 was added, the plate centrifuged for 30 s, and incubated for 60 min at room temperature. Luminescence was measured with an Envision plate reader, and % Inhibition was calculated for each well as: ([max−min]−[test−min])/[max−min]. IC50 values were calculated from concentration vs. % Inhibition data via a four-parameter variable slope model.

hKIF18A (1-374), sequence (Q8NI77 1-374): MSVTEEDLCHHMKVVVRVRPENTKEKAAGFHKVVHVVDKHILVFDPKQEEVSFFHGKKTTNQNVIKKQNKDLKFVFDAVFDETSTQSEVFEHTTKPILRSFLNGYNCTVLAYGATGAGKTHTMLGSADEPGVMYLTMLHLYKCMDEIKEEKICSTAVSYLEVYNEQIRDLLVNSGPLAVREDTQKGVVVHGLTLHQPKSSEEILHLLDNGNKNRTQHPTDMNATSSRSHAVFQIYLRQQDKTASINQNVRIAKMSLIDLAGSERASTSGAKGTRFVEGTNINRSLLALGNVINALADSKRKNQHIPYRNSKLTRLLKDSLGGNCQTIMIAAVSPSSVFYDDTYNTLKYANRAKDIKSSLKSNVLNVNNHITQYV

IC50 | Compound
> 30 µM | CS(=O)(=O)Nc1ccc(-c2noc(-c3cccc(N4CCOCC4)n3)n2)c(N2CCC3(CC2)CC3)c1 [Compound 164, N-(4-(5-(6-morpholinopyridin-2-yl)-1,2,4-oxadiazol-3-yl)-3-(6-azaspiro[2.5]octan-6-yl)phenyl)methanesulfonamide]
0.029 µM | CS(=O)(=O)Nc1ccc(-n2cc(-c3cccc(N4CCC(F)(F)CC4)n3)cn2)c(N2CCC3(CC2)CC3)c1 [Compound 17, N-(4-(4-(6-(4,4-difluoropiperidin-1-yl)pyridin-2-yl)-1H-pyrazol-1-yl)-3-(6-azaspiro[2.5]octan-6-yl)phenyl)methanesulfonamide]
0.016 µM | CS(=O)(=O)Nc1ccc(-n2cc(-c3ccn(C4CCC(F)(F)CC4)n3)nn2)c(N2CCC3(CC2)CC3)c1 [Compound 41, N-(4-(4-(1-(4,4-difluorocyclohexyl)-1H-pyrazol-3-yl)-1H-1,2,3-triazol-1-yl)-3-(6-azaspiro[2.5]octan-6-yl)phenyl)methanesulfonamide]
0.06 µM | O=S(=O)(CCO)Nc1ccc(-n2cc(-c3ccn(C4CCC4)n3)nn2)c(N2CCC3(CC2)CC3)c1 [Compound 82, N-(4-(4-(1-cyclobutyl-1H-pyrazol-3-yl)-1H-1,2,3-triazol-1-yl)-3-(6-azaspiro[2.5]octan-6-yl)phenyl)-2-hydroxyethane-1-sulfonamide]
0.063 µM | Cc1ncc(-c2cn(-c3ccc(NS(=O)(=O)CCO)cc3N3CCC4(CC3)CC4)nn2)nc1C1=CCCC1 [Compound 161, N-(4-(4-(6-(cyclopent-1-en-1-yl)-5-methylpyrazin-2-yl)-1H-1,2,3-triazol-1-yl)-3-(6-azaspiro[2.5]octan-6-yl)phenyl)-2-hydroxyethane-1-sulfonamide]
0.031 µM | CCS(=O)(=O)Nc1ccc(-n2cc(-c3ccc(F)c(N4CCC(F)(F)CC4)n3)nn2)c(N2CCC3(CC2)CC3)c1 [Compound 148, N-(4-(4-(6-(4,4-difluoropiperidin-1-yl)-5-fluoropyridin-2-yl)-1H-1,2,3-triazol-1-yl)-3-(6-azaspiro[2.5]octan-6-yl)phenyl)ethanesulfonamide]
0.0065 µM | O=S(=O)(CCO)Nc1ccc(-n2cc(-c3ccc(F)c(N4CCCCC4)n3)nn2)c(N2CCC3(CC2)CC3)c1 [Compound 136, N-(4-(4-(5-fluoro-6-(piperidin-1-yl)pyridin-2-yl)-1H-1,2,3-triazol-1-yl)-3-(6-azaspiro[2.5]octan-6-yl)phenyl)-2-hydroxyethane-1-sulfonamide]
0.0031 µM | O=S(=O)(CCO)Nc1ccc(-n2cc(-c3ccc(C(O)C4CCCC4)o3)nn2)c(N2CCC3(CC2)CC3)c1 (single isomer, unassigned) [Compound 51b]
0.018 µM | CC(C)(C)NS(=O)(=O)c1cccc(-c2cn(-c3ccc(NS(=O)(=O)C4(CO)CC4)cc3N3CCC4(CC3)CC4)nn2)c1 [Compound 122, N-(tert-butyl)-3-(1-(4-((1-(hydroxymethyl)cyclopropane)-1-sulfonamido)-2-(6-azaspiro[2.5]octan-6-yl)phenyl)-1H-1,2,3-triazol-4-yl)benzenesulfonamide]

Continued, compound first:

Compound | IC50
CCS(=O)(=O)Nc1ccc(-n2cc(-c3ccc(S(=O)(=O)NC(C)(C)C)o3)nn2)c(N2CCC3(CC2)CC3)c1 [Compound 132, N-(tert-butyl)-5-(1-(4-(ethylsulfonamido)-2-(6-azaspiro[2.5]octan-6-yl)phenyl)-1H-1,2,3-triazol-4-yl)furan-2-sulfonamide] | 0.0085 µM
CS(=O)(=O)Nc1ccc(-c2cnc(-c3cccc(N4CCOCC4)n3)[nH]2)c(N2CCC3(CC2)CC3)c1 [Compound 27, N-(4-(2-(6-morpholinopyridin-2-yl)-1H-imidazol-5-yl)-3-(6-azaspiro[2.5]octan-6-yl)phenyl)methanesulfonamide] | > 3 µM
O=S(=O)(Nc1ccc(-n2cc(-c3ccc(F)c(N4CCC(F)(F)CC4)n3)nn2)c(N2CCCCC2)c1)C1(CO)CC1 [Compound 157, N-(4-(4-(6-(4,4-difluoropiperidin-1-yl)-5-fluoropyridin-2-yl)-1H-1,2,3-triazol-1-yl)-3-(piperidin-1-yl)phenyl)-1-(hydroxymethyl)cyclopropane-1-sulfonamide] | 0.021 µM
CCS(=O)(=O)Nc1ccc(-n2cc(-c3ccc(F)c(S(=O)(=O)NC(C)(C)C)c3)nn2)c(N2CCC3(CC2)CC3)c1 [Compound 120, N-(tert-butyl)-5-(1-(4-(ethylsulfonamido)-2-(6-azaspiro[2.5]octan-6-yl)phenyl)-1H-1,2,3-triazol-4-yl)-2-fluorobenzenesulfonamide] | 0.019 µM
O=S(=O)(CCO)Nc1ccc(-c2cn(-c3cccc(N4CCC(F)(F)CC4)c3)nn2)c(N2CCC3(CC2)CC3)c1 [Compound 65, N-(4-(1-(3-(4,4-difluoropiperidin-1-yl)phenyl)-1H-1,2,3-triazol-4-yl)-3-(6-azaspiro[2.5]octan-6-yl)phenyl)-2-hydroxyethane-1-sulfonamide] | 0.0086 µM
CC1CCN(c2cc(NS(C)(=O)=O)ccc2-n2cc(-c3cccc(N4CCC(F)(F)CC4)n3)nn2)CC1 [Compound 18, N-(4-(4-(6-(4,4-difluoropiperidin-1-yl)pyridin-2-yl)-1H-1,2,3-triazol-1-yl)-3-(4-methylpiperidin-1-yl)phenyl)methanesulfonamide] | 0.0087 µM
Cc1cc(-c2cn(-c3ccc(NS(=O)(=O)CCO)cc3N3CCC4(CC3)CC4)nn2)nc(N2CCC(F)C2)n1 (stereo not drawn) [Compound 102, N-(4-(4-(2-(3-fluoropyrrolidin-1-yl)-6-methylpyrimidin-4-yl)-1H-1,2,3-triazol-1-yl)-3-(6-azaspiro[2.5]octan-6-yl)phenyl)-2-hydroxyethane-1-sulfonamide] | 0.016 µM
O=S(=O)(CCO)Nc1ccc(-c2cn(-c3ccc(F)c(N4CCCCC4)n3)nn2)c(N2CCC3(CC2)CC3)c1 [Compound 147, N-(4-(1-(5-fluoro-6-(piperidin-1-yl)pyridin-2-yl)-1H-1,2,3-triazol-4-yl)-3-(6-azaspiro[2.5]octan-6-yl)phenyl)-2-hydroxyethane-1-sulfonamide] | 0.022 µM
Cc1cc(-c2cn(-c3ccc(NS(=O)(=O)CCO)cc3N3CCC4(CC4)C3)nn2)nc(N2CCC(F)(F)CC2)n1 [Compound 88, N-(4-(4-(2-(4,4-difluoropiperidin-1-yl)-6-methylpyrimidin-4-yl)-1H-1,2,3-triazol-1-yl)-3-(5-azaspiro[2.4]heptan-5-yl)phenyl)-2-hydroxyethane-1-sulfonamide] | 0.12 µM
CC(C)(C)NS(=O)(=O)c1cccc(-c2cn(-c3ccc(NS(=O)(=O)CCO)cc3N3CCC4(CC3)CC4)nn2)c1 [Compound 121, N-(tert-butyl)-3-(1-(4-((2-hydroxyethyl)sulfonamido)-2-(6-azaspiro[2.5]octan-6-yl)phenyl)-1H-1,2,3-triazol-4-yl)benzenesulfonamide] | 0.014 µM
CC(C)(C)NS(=O)(=O)c1cccc(-c2cn(-c3ccc(NS(C)(=O)=O)cc3N3CCC4(CC3)CC4)nn2)c1 [Compound 12, N-(tert-butyl)-3-(1-(4-(methylsulfonamido)-2-(6-azaspiro[2.5]octan-6-yl)phenyl)-1H-1,2,3-triazol-4-yl)benzenesulfonamide] | 0.0091 µM
CS(=O)(=O)Nc1ccc(-n2cc(-c3cccc(N4CC5CC(C4)O5)n3)nn2)c(N2CCC3(CC2)CC3)c1 [Compound 55, N-(4-(4-(6-(6-oxa-3-azabicyclo[3.1.1]heptan-3-yl)pyridin-2-yl)-1H-1,2,3-triazol-1-yl)-3-(6-azaspiro[2.5]octan-6-yl)phenyl)methanesulfonamide] | 0.029 µM
